row,melting point [°C],Compound
1,117 to 126,CCc1nc2c(C)cc(C)nc2n1Cc1ccc(C(c2ccccc2)C(Br)C(=O)O)cc1 (stereo not drawn)
2,217 to 219,Cn1c(=O)sc2cc(N3C[C@H](C(=O)NCCO)OC3=O)ccc21
3,121 to 123,O=C(O)CCCCCCCCNS(=O)(=O)c1ccc(Cl)cc1
4,110 to 112,CC(C)N(C(=O)CNc1ccccc1N)c1ccccc1
5,220 to 223,O=C(C=C(c1ccccc1)c1ccc(Cl)cc1)Nc1ccc(C(=O)O)cc1
6,228 to 229,O=C1NCc2c(-c3ccccc3)cccc2N1CCN1CCOCC1
7,> 300,Nc1scc2c(C(=O)O)nn(-c3ccc(Cl)cc3)c(=O)c12
8,108 to 109,CCCCCCCC(c1cc(C)ccc1O)c1cc(C)ccc1O
9,129 to 130,COCOc1cc(OCOC)cc(C(=O)O)c1
10,82 to 84,CC(C)(C)OC(=O)N[C@H]1CN(Cc2ccccc2)[C@@H]2CCCO[C@H]12 (relative stereo)
11,107,Cc1nc(C(O)c2ccc(Cl)cc2)sc1C (stereo not drawn)
12,263,NS(=O)(=O)c1ccc(-c2noc(-c3cnc4ccc(-c5ccc(Cl)cc5)cn34)n2)s1
13,150 to 151,CC1(C)CCC(C)(C)c2cc(C(=O)SCc3ccc(C(=O)O)cc3)ccc21
14,206 to 207,O=C(Nc1ccccc1)C1=NOCCS1(=O)=O
15,256,Cc1c(C(=O)Nc2ccc(N3CCC(N4CCSCC4)CC3)c(C#N)c2)cnn1-c1ccc(Cl)cc1
16,194 to 195,O=C(O)c1cc(OCc2ccccc2)c(OCc2ccccc2)c(OCc2ccccc2)c1
17,210 to 211,COc1ccnnc1NS(=O)(=O)c1cccc(Cl)c1Cl
18,173 to 175,O=C(Nc1ccc(Cl)cc1)N1CC(c2ccccc2)C(c2ccc(Cl)cc2)=N1 (stereo not drawn)
19,148 to 150,C#CCCCCOc1ccc(/C=C/C(=O)Nc2ccccc2C(=O)O)cc1OC
20,248 to 252,COc1c(N2CC(C)C(N)C(C)(C)C2)c(F)c(N)c2c(=O)c(C(=O)O)cn(C3CC3)c12 (stereo not drawn)
21,189 to 190,COC(=O)C=C1SC(Nc2c(Cl)cccc2Cl)=NC1=O
22,134,Cc1cccc(-c2nc3ccc(Cl)cn3c2-c2ccnc(-c3ccc(CN4CCCC4)cc3)c2)n1
23,116 to 118,CC(C)[C@H](NC(=O)OCc1ccccn1)C(=O)O

row,melting point [°C],Compound
1,213 to 215,Cc1cc(Oc2ncnc3ccn(C)c23)ccc1NC(=O)Nc1cccc(C(F)(F)F)c1
2,128 to 131,COc1ccc(Nc2cc(Cl)nc(SC)n2)cc1
3,151 to 153,N#CC1=C(Nc2ccc(F)cc2)c2ccccc2CC1
4,78 to 80,"CC(NC(=O)c1cccnc1Oc1ccc(F)cc1)c1ccc(Cl)s1 (single isomer, unassigned; (+))"
5,192,CCOC(=O)c1cn(-c2nsnc2C)c2nc(Cl)c(F)cc2c1=O
6,135,O=C(O)c1ccc(C#CC=Cc2ccccc2-c2ccc(Cl)cc2)cc1
7,91,COC(=O)c1ccc(OC(=O)c2ccccc2)cc1OC
8,127 to 128,COc1ccc(C(=CC(=O)N2CCOCC2)c2ccc(-c3ccccc3)cc2)cc1OC
9,242 to 244,Cc1cc2nnc(C)n2nc1-c1ccc(C#N)cc1
10,> 220,O=c1nc(CN2CCC[C@H](OCc3cc(Cl)cc(Cl)c3)[C@@H]2c2ccccc2)[nH][nH]1
11,128 to 130,CCN(CC)CCNC(=O)N1CCC(S(=O)c2ccc(Cl)cc2)C1 (stereo not drawn)
12,265 to 266,COc1ccc2c(c1)C(=O)c1cc(-c3nnn[nH]3)ccc1C2=O
13,151 to 153,N#Cc1ccc(Cc2nc[nH]n2)cc1
14,110,CCCCc1nc2ccc([C@H]3C[C@H](CO)ON3C)cc2c(=O)n1Cc1ccc(-c2ccccc2-c2nnn[nH]2)cc1 (relative stereo)
15,155 to 160,Cn1ccnc1SCc1nc(-c2ccc3c(c2)OCO3)c2cc3c(cc2n1)OCO3
16,156 to 158,CC(C)N(Cc1cccs1)C(=O)C12CC3CC(CC(C3)C1)C2
17,284,CN1CCN(CCC(=O)Nc2ccc3c(c2)C(=O)c2cc(NC(=O)CCN4CCN(C)CC4)ccc2C3=O)CC1
18,245 to 247,COC(=O)c1ccc(-c2cn(Cc3cccnc3)c3c2CCc2nc4c(nc2-3)C(C)(C)CCC4(C)C)cc1
19,296 to 298,COC(=O)CCc1ccc(-n2ncn(-c3ccc(C(=N)NC(=O)OC)cc3)c2=O)cc1
20,183 to 184,CCCc1nc2c(N)nc3ccccc3c2n1CCCCNC(=O)Nc1ccccc1
21,320 to 322,Cc1nc(-c2ccncn2)cc(=O)[nH]1
22,208 to 209,Cc1sc(C(=O)OCc2ccccc2)cc1NC(=O)NCc1ccccc1
23,81 to 84,CN(C[C@H]1CC[C@H](NC(=O)OCc2ccccc2)CC1)C1CCOCC1

row,melting point [°C],Compound
1,88 to 89,COC(C)c1ccc(C=C(C)c2ccc3c(c2)C(C)(C)CCC3(C)C)cc1 (stereo not drawn)
2,102 to 103,CCCCOc1nn(-c2ccc(C(F)(F)F)cn2)cc1CCCOc1ccc(CCC(=O)O)c(OCC)c1
3,157 to 158,COC(=O)c1sc(CBr)cc1NC(=O)Nc1ccc(C)cc1
4,107 to 109,COCCOc1cc(N(C)S(=O)(=O)c2ccccn2)c2[nH]c(C3=NCC(CC(=O)O)S3)cc2c1 (stereo not drawn)
5,112,CCOC(=O)[C@H](Cc1ccc(Nc2nccc3ccncc23)cc1)NC1=CC(=O)C12CCOCC2
6,142 to 145,CC(C)N(CCC(CC(=O)N1CCCCC1)(C(=O)N(C)C)c1ccccc1)C(C)C (stereo not drawn)
7,135 to 137,CCCc1c(SC(=S)N(CC)CC)c2cc(Br)ccc2oc1=O
8,119 to 121,CC(=O)c1ccc(NS(C)(=O)=O)c(Oc2ccc(Cl)cc2Cl)c1
9,221 to 226,CCNCC1(C)CN(c2cc3c(cc2F)c(=O)c(C(=O)O)cn3C2CC2)C1
10,88 to 89,CC(C)C(NC(=O)C(F)(F)F)C(=O)O (stereo not drawn)
11,42 to 45,CC(C)N(CCOc1ccc(-c2nnc(CSCCOc3ccccc3)o2)cc1)C(C)C
12,166 to 168,O=C(O)C(CSc1ncccn1)CS(=O)(=O)c1ccc(-c2ccc(Cl)cc2)cc1 (stereo not drawn)
13,101,CCCCCCCCCCCCCCCCCC(=O)n1cc(F)c(=O)[nH]c1=O
14,88 to 90,O=C(Nc1cc(C(F)(F)F)cc(C(F)(F)F)c1)C1C(=O)C2CCC(C2)C1=O (stereo not drawn)
15,138 to 140,OCC1=C(c2cc3ccccc3s2)N2CCN=C2S1
16,106 to 107,COc1ccc(Nc2nc3ccccc3c3[nH]c(C4CCCC4)nc23)cc1
17,126 to 127,COc1nc(OC)nc(C2(c3nc(OC)nc(OC)n3)OC(=O)c3c(Cl)cccc32)n1
18,150 to 153,COc1c(Cl)ccc(-c2cc(N)c(Cl)c(C(=O)NOCc3ccc(F)cc3)n2)c1F
19,125,COc1cc(C=C2C(=O)CCc3ccc([N+](=O)[O-])cc32)c([N+](=O)[O-])cc1OC
20,75 to 77,O=Cc1ccc(-c2ccc(-c3ccco3)o2)o1
21,222 to 223,O=C(Nc1noc2ccccc12)N1CCN(c2nc(-c3ccccn3)ns2)CC1
22,70.2 to 71.6,CS(=O)(=O)c1ccc(-c2nn(CCCc3ccccc3)c(=O)cc2-c2ccc(Cl)cc2)cc1
23,141 to 142,Nc1nccc(-c2cccc(OCC(O)CN3CCN(c4ccc(Cl)cc4)CC3)c2)n1 (stereo not drawn)

row,melting point [°C],Compound
1,207 to 209,CCc1nc2c(cnn2CC)c(NC2CCOCC2)c1CNC(=O)c1cccc(C(=O)O)c1
2,188 to 190,COc1ccc(-c2noc(C(F)F)c2-c2ccc(S(N)(=O)=O)cc2)cc1F
3,215 to 216,CCOc1nc(F)cc2nc(SSc3nc4cc(F)nc(OCC)n4n3)nn12
4,48 to 50,CCOC(=O)c1oc2ccc(Br)c(OC(C)C)c2c1C
5,249,CN(c1ccc(O)cc1)c1cc2ccc(F)cc2c(O)n1
6,220 to 221,N#Cc1ccccc1/C=C/C(=O)Nc1cc(Cl)cc(NC(=N)c2ccccc2)c1
7,62 to 65,CC(=O)OCc1c(Br)cccc1Br
8,131 to 133,Cn1nnc(-c2cc3c(Oc4ccc(Cl)cc4)cncc3s2)n1
9,179 to 181,N#CCC(C(=O)N1C(=O)OCC1c1ccccc1)c1ccccc1F (stereo not drawn)
10,184 to 185,COc1ccc(C(=O)Nc2cccnc2)cc1Nc1cccc(C(F)(F)F)c1
11,154 to 157,Cc1cc([N+](=O)[O-])c(O)c2c1CCC2=O
12,129 to 130,OC(c1ccccc1)C1CCN(CCCN(c2ccccc2)c2ccccc2)CC1 (stereo not drawn)
13,78 to 79,COC(=O)CNC(C)=S
14,170 to 172,O=Cc1cc(C=O)c(C#Cc2ccccc2)cc1C#Cc1ccccc1
15,253 to 254,NC(=O)c1[nH]c2ccc(Cl)cc2c1S(=O)(=O)c1ccccc1
16,181 to 182,CCSc1nc2c(C)sc(C(=O)O)c2n1Cc1ccc(-c2ccccc2-c2n[nH]c(=O)n2C)cc1
17,104,C=COCCONC(=O)c1ccc(F)cc1Nc1ccc(I)cc1F
18,210 to 211,O=CC(=Cc1ccccc1OCc1ccc(Br)cc1)C(C=O)=Cc1ccccc1OCc1ccc(Br)cc1
19,267 to 270,N[C@@H]1C[C@H]2CC[C@@H]1N(c1cc3c(cc1F)c(=O)c(C(=O)O)cn3C1CC1)C2
20,218 to 221,COc1nc(N)nc(OC)n1

row,Compound,melting point [°C]
1,c1cc2c(cc1NC1=NCCN1)CCC2,41 to 42
2,OC(c1ccc(F)cc1)(c1ccc(F)cc1)C1CCNC1 (stereo not drawn),152 to 153
3,CN(C)c1nn(-c2cc(F)c(C#N)cc2F)c(=O)n1C,131 to 133
4,O=c1c2ccc(F)cc2nc(CSc2ncnc3[nH]cnc23)n1-c1ccccc1Cl,151 to 154
5,CN(C)c1nn(-c2cc(F)c(C#N)cc2F)c(=O)n1N,154 to 155
6,NCC(=O)NCC(=O)Nc1ccc(Cl)cc1C(=O)c1ccccc1,136 to 138
7,O=C(OCc1ccc(Cl)cc1)c1ncn2c1[C@@H]1CCCN1C(=O)c1c(Cl)cccc1-2,183 to 184
8,CCN(CC)Cc1nc(-c2ncn3c2CN(C)C(=O)c2cc(F)ccc2-3)no1,172 to 174
9,CCN1C(=O)N(c2ccc(C#N)c(C(F)(F)F)c2)C(=O)C1(CO)CO,155 to 156
